The subject of one data set is AsPC-1 cells. The data set is described as follows: MTT cellular proliferation assay, AsPC-1 pancreatic adenocarcinoma cells. Type of data set: cell-based, human. The note with it: for IC50: 37 °C, MTT, mean ± SD (3 experiments); for Therapeutic index AsPC-1: IC50 of MRC-5 cells/IC50 of AsPC-1 cells, 72 h/37 °C. As to the method: (§1) The anti-proliferative activity of Dp4e4mT relative to its complexes with Fe(III), Co(III), Ni(II), Cu(II), Zn(II), Ga(III), and Pd(II) was examined over incubation periods of 24-, 48-, and 72 h/37 °C (Table 2). These studies were performed using human SK-N-MC neuroepithelioma and AsPC-1 pancreatic adenocarcinoma cells that we have previously examined to assay other ligands.[15,28,43] […]
(§2) All cell lines were procured from the American Type Culture Collection (ATCC; Manassas, VA). The SK-N-MC neuroepithelioma cell line and the mortal MRC-5 fibroblasts were cultured in minimum essential medium (Sigma-Aldrich), while the AsPC-1 cell line was cultured in Roswell Park Memorial Institute 1640 medium (Thermo Fisher Scientific, MA, USA). Both media were supplemented with 10% fetal calf serum, non-essential amino acids (1 mM), sodium pyruvate (1 mM), L-glutamine (2 mM), penicillin (100 U/mL), streptomycin (100 U/mL), and Fungizone (0.5 µg/mL). Cells were maintained at 37 °C in an incubator under a humidified atmosphere with 5% CO 2, following established protocols. 11 Cellular Proliferation Assay
(§3) Cellular proliferation was evaluated through the established 3-(4,5-dimethylthiazol-2-yl)-2,5-diphenyltetrazolium bromide (MTT) proliferation assay, validated by viable cell counts.12 […]
(§4) Ligands and complexes were dissolved in DMSO to make a stock solution of 10 mM, subsequently diluted in culture media. For cell culture experiments, the DMSO's maximum concentration remained below 0.5% (v/v), with no discernible impact on proliferation.12 MTT […]
(§5) Trypan blue staining.12 Analysis of the data was executed employing MARS Data Analysis Software (BMG LabTech; version 3.30). The concentration of agents necessary to inhibit cellular proliferation by 50% (IC 50) was then calculated. […]

A further data set concerns MRC-5 fibroblasts. As to the kind of experiment: MTT cellular proliferation assay, mortal MRC-5 fibroblasts. Type of data set: cell-based. The note with it: 37 °C, mean ± SD (3 experiments). As to the method:
(§6) To examine the selectivity of the Dp4e4mT complexes against neoplastic versus normal mortal cells, their anti-proliferative efficacy was compared to mortal MRC-5 fibroblasts after a 72 h/37 °C incubation (Table 3). […] To further examine selectivity, an in vitro therapeutic index was calculated as per our previous investigations.[28,57,59,66,67] This parameter is derived from the ratio of the IC50 of MRC-5 cells/IC50 of SK-N-MC or AsPC-1 cells; with high ratios indicating greater selective anti-proliferative activity against neoplastic cells (Table 3). The mean therapeutic index is the average of the therapeutic indices calculated for both tumor cell-types. […] The mean therapeutic index of Dp4e4mT exceeded that obtained for clinically trialed DpC (157), as well as that of Dp44mT (112) and DFO (6). […]
as §2, §3, §4, §5

The next data set concerns SK-N-MC and AsPC-1 cells. As to the kind of experiment: MTT cellular proliferation assay, values stated over both tumor cell-types. The class given is cell-based, human. Conditions: for Mean therapeutic index: average of the therapeutic indices for SK-N-MC and AsPC-1 vs MRC-5, 72 h/37 °C. As to the method: The anti-proliferative activity of Dp4e4mT relative to its complexes with Fe(III), Co(III), Ni(II), Cu(II), Zn(II), Ga(III), and Pd(II) was examined over incubation periods of 24-, 48-, and 72 h/37 °C (Table 2). These studies were performed using human SK-N-MC neuroepithelioma and AsPC-1 pancreatic adenocarcinoma cells that we have previously examined to assay other ligands.[15,28,43]
as §6, §2, §3, §4, §5

For data set [1], the target named is T1, oxy-Hb in intact human erythrocytes (Homo sapiens, UniProt P68871+P69905).
T1 construct: Physiologically, oxy-Hb is found in erythrocytes; endogenous in cells; host or cells: intact human erythrocytes from fresh blood of healthy donors
As to the kind of experiment: Oxidation of oxy-Hb in intact human erythrocytes. Type of data set: cell-based. The note with it: 10 μM, 3 h/37 °C. As to the method: Fig. 7 (A and B) Investigation of the effects of Dp4e4mT and its Fe(III), Co(III), Ni(II), Cu(II), Zn(II), Ga(III), and Pd(II) complexes versus DFO, Dp44mT, DpC and their Fe(III) complexes (10 μM) on met-Hb generation (% zero time) after an incubation of 1–3 h/20 °C with purified oxy-Hb (40 μM). (C) Investigation of the effects of Dp4e4mT and its Fe(III), Co(III), Ni(II), Cu(II), Zn(II), Ga(III), or Pd(II) complexes relative to the positive controls DFO, Dp44mT, DpC, and their Fe(III) complexes (10 μM) on oxy-Hb oxidation in intact human erythrocytes after a 3 h/37 °C incubation. Results are mean ± SD (3 experiments).
Physiologically, oxy-Hb is found in erythrocytes, and in the current investigation, the ligands and complexes (10 μM) were incubated with intact human erythrocytes for 3 h/37 °C to assess their effects on oxy-Hb oxidation (Fig. 7C). As expected from our previous studies,[28,39] […]
In experiments examining the activity of the agents, all complexes were dissolved in 1,2-propanediol, then diluted to 10 µM in PBS (pH 7.2). […]
1800; Shimadzu, Kyoto, Japan). Concentrations of met-Mb and met-Hb, as well as reduced-Mb and reduced-Hb, were determined at 409 nm and 435 nm, respectively. Concentrations of oxy-Mb and oxy-Hb were determined at 544 nm and 582 nm, respectively. 17 Oxidation of Oxy-Hb in Human Erythrocytes
Oxidation of oxy-Hb in human erythrocytes was performed by standard methods using fresh blood from healthy donors after collection in Vacutainer® collection tubes (BD, Plymouth, UK).8 Erythrocytes centrifuged (480 xg/5 min/4°C) and then washed in HBSS, and subsequently resuspended in this buffer. Incubation of the erythrocytes (15% hematocrit) in the absence or presence of the agents (10 μM) was performed for 3 h/37°C. The erythrocytes were […]

The test system of the next data set is SK-N-MC cells. The data set is described as follows: MTT cellular proliferation assay, SK-N-MC neuroepithelioma cells. The class given is cell-based, human. Conditions: for IC50: SK-N-MC, 37 °C, MTT, mean ± SD (3 experiments); for Therapeutic index SK-N-MC: IC50 of MRC-5 cells/IC50 of SK-N-MC cells, 72 h/37 °C. As to the method:
as §1, §2, §3, §4, §5

A value given as a limit tells only on which side of the number the result lay.

T1 sequence (P69905 2-142 limits assumed): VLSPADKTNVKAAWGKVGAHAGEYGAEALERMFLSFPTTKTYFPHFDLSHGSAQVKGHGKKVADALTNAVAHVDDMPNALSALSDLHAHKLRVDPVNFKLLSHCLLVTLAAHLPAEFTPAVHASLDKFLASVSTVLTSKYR
T1 sequence (P68871 2-147 limits assumed): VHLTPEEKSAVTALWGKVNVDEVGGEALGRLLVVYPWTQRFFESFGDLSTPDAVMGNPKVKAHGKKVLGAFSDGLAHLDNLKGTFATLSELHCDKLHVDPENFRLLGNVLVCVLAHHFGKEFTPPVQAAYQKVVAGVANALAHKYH

Regarding `CC(=O)N(O)CCCCCNC(=O)CCC(=O)N(O)CCCCCNC(=O)CCC(=O)N(O)CCCCCN` [DFO, desferrioxamine, reference compound], the concentration for half-maximal inhibition (IC50) in the data set on AsPC-1 cells (Homo sapiens, ASPC1, AsPC-1, 24 h) was > 100 µM; with AsPC-1 cells (Homo sapiens, ASPC1, AsPC-1, 48 h), 22.76 ± 0.084 µM; in the data set on AsPC-1 cells (Homo sapiens, ASPC1, AsPC-1, 72 h), 3.07 ± 0.585 µM; in the data set on MRC-5 fibroblasts (Homo sapiens, MRC5, MRC-5, 72 h) it was 28.91 ± 0.101 µM; in the data set with SK-N-MC and AsPC-1 cells (Homo sapiens, SK-N-MC and AsPC-1, after 72 h, read-out: IC50 (range over both cell-types)) it was 3.07 to 8.18 µM; in the data set with SK-N-MC cells (Homo sapiens, 24 h) it was > 100 µM. Moreover, the IC50 in the data set on SK-N-MC cells (Homo sapiens, 48 h) is 45.27 ± 0.061 µM; in the data set with SK-N-MC cells (Homo sapiens, 72 h), 8.18 ± 2.46 µM. The “Therapeutic index AsPC-1” value with AsPC-1 cells is listed as 9. The Mean therapeutic index with SK-N-MC and AsPC-1 cells was determined as 6. The “oxy-Hb oxidation in erythrocytes versus the control (in words)” value in data set [1] is reported as “did not induce any significant (p > 0.05) increase in oxy-Hb oxidation”. The “Therapeutic index SK-N-MC” value with SK-N-MC cells is 3.

On to `CCN(C)C([S-])=NN=C(c1ccccn1)c1ccccn1.CCN(C)C([S-])=NN=C(c1ccccn1)c1ccccn1.[Cu+2]` [[Cu(Dp4e4mT)2]], for which the concentration for half-maximal inhibition (IC50) in the data set on AsPC-1 cells (AsPC-1, 24 h) came to 1.14 ± 0.034 µM; with AsPC-1 cells (AsPC-1, 48 h) it was 0.044 ± 0.007 µM; with AsPC-1 cells (AsPC-1, 72 h), 0.003 ± 0.003 µM; in the data set with MRC-5 fibroblasts (MRC-5, 72 h), 0.342 ± 0.121 µM; with SK-N-MC cells (24 h) it was 0.516 ± 0.006 µM; in the data set on SK-N-MC cells (48 h) it was 0.034 ± 0.006 µM. In addition, the IC50 in the data set on SK-N-MC cells (72 h) is 0.004 ± 0.001 µM. The “Therapeutic index AsPC-1” value in the data set with AsPC-1 cells was 113. For the same compound, in the data set with SK-N-MC and AsPC-1 cells, the Mean therapeutic index is recorded as 99. Moreover, the “oxy-Hb oxidation in erythrocytes versus the control (in words)” value in data set [1] is given as “negligible effects on oxy-Hb oxidation”. Also, the “Therapeutic index SK-N-MC” value in the data set on SK-N-MC cells was determined as 85.

The record behind these values is article PMC10793205, “Differential transmetallation of complexes of the anti-cancer thiosemicarbazone, Dp4e4mT: effects on anti-proliferative efficacy, redox activity, oxy-myoglobin and oxy-hemoglobin oxidation” (Chemical Science, 2023).
